# Like-named read-outs stand apart in the source and are kept apart here.
# How the values were obtained:
# BMDM = experiment: Cytotoxicity on BMDM (MTT); format: cell-based, mouse; settings: Mus musculus, BMDM; 72 h, MTT; read-out: Healthy Cell Lines IC50, BMDM
# Experimental: (§1) Cytotoxicity was evaluated on human microvascular endothelial cells (HMEC-1, provided by the Centers for Disease Control, Atlanta, GA, USA), on immortalized mouse C57Bl/6 bone marrow derived macrophages (BMDM) from wild type lineage (generated in the laboratories of Drs. Douglas Golenbock and Kate Fitzgerald, University of Massachusetts, Worcester, MA, USA) and on a human acute monocytic leukaemia cell line (THP-1).
# (§2) HMEC-1 were maintained in MCDB 131 medium (Invitrogen, Milan, Italy) supplemented with 10% fetal calf serum (HyClone), 10 ng/mL of epidermal growth factor, 1 μg/mL of hydrocortisone, 2 mM glutamine and 20 mM HEPES buffer, at 37 °C in 5% CO2. BMDM were maintained in DMEM (Euroclone) medium supplemented with 10% fetal bovine serum (HyClone, Celbio, Milan, Italy), 2 mM glutamine, and 25 mM of HEPES buffer solution (Euroclone). THP-1 were maintained in RPMI supplemented with 10% heat-inactivated FCS, 50 µM 2-mercaptoethanol, 10 µM sodium pyruvate, 20 mM HEPES, and 2 mM glutamine. In order to achieve differentiation into macrophages, cells were treated with 10 ng/mL phorbol myristate acetate (PMA) for 72 h.
# (§3) For the cytotoxicity assay, cells were seeded in 96 well flat bottom tissue culture clusters (Costar, New York, NY, USA) at the following concentrations: HMEC 10^5 cell/mL, BMDM at 10^6 cell/mL, THP1 at 5 × 10^5 cell/mL. After 24 h, cells were treated with serial dilutions of test compounds in a final volume of 200 µL/well. Cell proliferation was evaluated after 72 h using the MTT assay.
# (§4) The absorbances were measured with a microplate spectrophotometer (Synergy 4-Biotek) at a test wavelength of 550 nm and a reference wavelength of 650 nm. The results are expressed as IC50 as the concentration inhibiting 50% of cell growth. Each IC50 value is the mean and standard deviation of at least three separate experiments performed in duplicate.
# HMEC-1 = experiment: Cytotoxicity on HMEC-1 (MTT); format: cell-based, human; settings: Homo sapiens, read-out: Healthy Cell Lines IC50, HMEC-1
# Experimental: as §1, §2, §3, §4
# LbHsp90 = LbHsp90 (Leishmania braziliensis, UniProt A4HL70); experiment: In vitro inhibition of the ATPase activity of LbHsp90 (Malachite Green Phosphate Assay); format: biochemical; settings: 7 μM LbHsp90, 27 °C, 60 min
# LbHsp90, sequence (A4HL70 entry or part of it): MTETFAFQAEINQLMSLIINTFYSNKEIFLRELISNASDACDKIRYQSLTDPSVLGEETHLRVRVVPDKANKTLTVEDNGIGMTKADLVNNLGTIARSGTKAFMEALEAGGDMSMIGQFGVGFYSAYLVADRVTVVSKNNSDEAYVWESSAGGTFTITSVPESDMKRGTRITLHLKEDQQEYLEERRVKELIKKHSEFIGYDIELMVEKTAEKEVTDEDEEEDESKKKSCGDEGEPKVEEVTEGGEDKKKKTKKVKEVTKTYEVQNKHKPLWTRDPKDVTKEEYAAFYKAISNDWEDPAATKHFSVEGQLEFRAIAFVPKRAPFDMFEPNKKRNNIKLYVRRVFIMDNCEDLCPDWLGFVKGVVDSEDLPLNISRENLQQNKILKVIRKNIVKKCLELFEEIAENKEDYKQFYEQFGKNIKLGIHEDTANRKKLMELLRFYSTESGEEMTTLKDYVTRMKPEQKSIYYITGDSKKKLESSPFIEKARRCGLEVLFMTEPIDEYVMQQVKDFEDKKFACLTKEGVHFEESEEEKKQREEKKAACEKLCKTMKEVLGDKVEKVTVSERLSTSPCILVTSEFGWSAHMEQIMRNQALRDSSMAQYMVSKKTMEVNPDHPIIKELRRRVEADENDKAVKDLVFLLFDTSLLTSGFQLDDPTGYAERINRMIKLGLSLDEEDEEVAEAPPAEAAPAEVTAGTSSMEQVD
# Excerpt: To evaluate in vitro the modulatory activity of CE, PR and CE caboxamides, a full-length recombinant Hsp90 from L. braziliensis (LbHsp90) was produced in E. coli BL21 DE3 harboring the pET28a_LbHsp90 coding for the C-terminal His-tagged target chaperone (genbank number: XP_001567804.1, full sequence is reported in Appendix B). Pratically, the plasmid pET28a_LbHsp90, kindly donated by professor J.C. Borges, was transformed in E. coli BL21 DE3 using the TransformAid Bacterial Transformation Kit (Thermo Fisher, Waltham, MA, USA). Subsequently, the obtained transformants were grown overnight in LB medium containing 30 μg mL^−1 kanamycin (LBkan30) and then inoculated in 1 L SB kan30 medium (Yeast extract 30 g L^−1, Tryptone 20 g L^−1, NaCl 10 g L^−1) at 37 °C and 220 rpm. When the OD600 reached 0.5–1, gene expression was induced by the addition of 2 mL of 1 M IPTG solution in water and the culture was shifted at 30 °C for 24 h. After cell harvesting by centrifugation (5000 rpm for 30 min), the cell pellet was resuspended in 20 mL of wash buffer (20 mM HEPES buffer, pH 7.0, 500 mM NaCl, 20 mM imidazole) and recombinant E. coli BL21DE3 cells were disrupted by ultrasonication. LbHsp90 was subsequently purified using a Nickel Sepharose 6 Fast Flow agarose resin (Ni-NTA) (GE Healthcare, Milan, Italy) as follows. Soluble protein fraction was separated from cell debris by centrifugation (10,000 rpm for 30min) after cell ultrasonication, and clear lysates were incubated with the Ni-NTA resin for 90 min at 4 °C under mild shaking and loaded onto a glass column (10 × 110 mm). The resin was then washed with 10mL of wash buffer and His-tagged LbHsp90 was eluted using a 3 step gradient (10 mL washing buffer containing 100, 200, and 300 mM imidazole, respectively) and dialyzed against 20 mM HEPES buffer (20 mM, pH 7.5), at 4 °C overnight. The protein content was measured using the Bio-Rad Protein Assay (Hercules, CA, USA) according to the Bradford method and the protein purity was verified by SDS-PAGE analysis (10% T, 2.6% C). It is worth noting that to avoid interferences with the assays described below, proteins were purified and conserved in HEPES buffer (20 mM, pH 7.5) in place of the standard PB-buffer. Reported data are the mean of two experiments run in duplicate.
# Modulatory activity toward the ATPase cycle of LbHsp90 was determined using a Malachite Green Phosphate Assay Kit (Catalog Number MAK307, Sigma-Aldrich®, St. Louis, MO, USA). Analyses were run in a 96-well plate directly following the quantitative formation of a green complex between Malachite Green, molybdate, and free orthophosphate (Pi) produced by ATP hydrolysis catalyzed by the chaperone. Color formation from the reaction was measured on a plate reader at 620 nm. Briefly, the IC50 of CE and its derivatives were extrapolated from a set of dose-response curves obtained by calculating the amount of Pi produced by LbHsp90 in the presence of different compounds concentrations.
# Reactions were run in HEPES buffer (20 mM, pH 7.5) containing 3 mM MgCl2 and 50 mM KCl in the presence of different compounds concentrations ([…]), LbHsp90 (7 μM) and ATP (25 mM) at 27 °C for 60 min. OD620 was measured 30 min after Malachite Green reactants addition.
# LbHsp90 native activity was measured by conducting the reaction in the presence of just LbHsp90 and ATP and extrapolating the concentration of Pi obtained.
# Three sets of control experiments, (1) ATP background hydrolysis, (2) compounds-related interferences and (3) protein-related background coloration, were run as follow: • (1) ATP (25 mM) incubated at 27 °C for 60 min • (2) Compounds (different concentrations) incubated with ATP (25 mM) at 27 °C for 60 min • (3) LbHsp90 (7 μM) at 27 °C for 60 min
# The in vitro performances of CE, PR and the carboxamides 1–11 (Figure 4) as potential inhibitors of the Leishmania braziliensis Hsp90 were investigated using Sigma-Aldrich® Malachite Green Phosphate Assay Kit. […]
IC50 (LbHsp90),SMILES,IC50 (BMDM),"IC50 (HMEC-1; HMEC-1, 72 h)","IC50 (HMEC-1; HMEC-1, 72 h, MTT)"
83 ± 2 µM,"CC1=C(O)C(=O)C=C2C1=CC=C1[C@@]2(C)CC[C@@]2(C)[C@@H]3C[C@](C)(C(=O)NCCN4CCCCC4)CC[C@]3(C)CC[C@]12C [compound 1, (2R,4aS,6aS,12bR,14aS,14bR)-10-hydroxy-2,4a,6a,9,12b,14a-hexamethyl-11-oxo-N-(2-(piperidin-1-yl)ethyl)-1,2,3,4,4a,5,6,6a,11,12b,13,14,14a,14b-tetradecahydropicene-2-carboxamide]",3.61 ± 0.38 µM,,0.51 ± 0.08 µM
81 ± 1 µM,"CC1=C(O)C(=O)C=C2C1=CC=C1[C@@]2(C)CC[C@@]2(C)[C@@H]3C[C@](C)(C(=O)NCCN4CCCC4)CC[C@]3(C)CC[C@]12C [compound 3, (2R,4aS,6aS,12bR,14aS,14bR)-10-hydroxy-2,4a,6a,9,12b,14a-hexamethyl-11-oxo-N-(2-(pyrrolidin-1-yl)ethyl)-1,2,3,4,4a,5,6,6a,11,12b,13,14,14a,14b-tetradecahydropicene-2-carboxamide]",4.53 ± 0.05 µM,,0.53 ± 0.17 µM
20 ± 2 µM,"CC1=C(O)C(=O)C=C2C1=CC=C1[C@@]2(C)CC[C@@]2(C)[C@@H]3C[C@](C)(C(=O)NCC45CCCN4CCC5)CC[C@]3(C)CC[C@]12C [compound 5, (2R,4aS,6aS,12bR,14aS,14bR)-N-((hexahydro-1H-pyrrolizin-7a-yl)methyl)-10-hydroxy-2,4a,6a,9,12b,14a-hexamethyl-11-oxo-1,2,3,4,4a,5,6,6a,11,12b,13,14,14a,14b-tetradecahydropicene-2-carboxamide]",2.68 ± 0.81 µM,,0.12 ± 0.03 µM
65 ± 4 µM,"CC1=C(O)C(=O)C=C2C1=CC=C1[C@@]2(C)CC[C@@]2(C)[C@@H]3C[C@](C)(C(=O)NCCNc4ccnc5cc(Cl)ccc45)CC[C@]3(C)CC[C@]12C [compound 6, (2R,4aS,6aS,12bR,14aS,14bR)-N-(2-((7-chloroquinolin-4-yl)amino)ethyl)-10-hydroxy-2,4a,6a,9,12b,14a-hexamethyl-11-oxo-1,2,3,4,4a,5,6,6a,11,12b,13,14,14a,14b-tetradecahydropicene-2-carboxamide]",2.15 ± 0.02 µM,,0.4 ± 0.03 µM
> 150 µM,"CC1=C(O)C(=O)C=C2C1=CC=C1[C@@]2(C)CC[C@@]2(C)[C@@H]3C[C@](C)(C(=O)NCCSS(C)(=O)=O)CC[C@]3(C)CC[C@]12C [compound 9, S-(2-((2R,4aS,6aS,12bR,14aS,14bR)-10-hydroxy-2,4a,6a,9,12b,14a-hexamethyl-11-oxo-1,2,3,4,4a,5,6,6a,11,12b,13,14,14a,14b-tetradecahydropicene-2-carboxamido)ethyl) methanesulfonothioate]",13 ± 2.48 µM,,4.07 ± 0.05 µM

SMILES,IC50 (LbHsp90),IC50 (BMDM),"IC50 (HMEC-1; HMEC-1, 72 h)","IC50 (HMEC-1; HMEC-1, 72 h, MTT)"
"CC1=C(O)C(=O)C=C2C1=CC=C1[C@@]2(C)CC[C@@]2(C)[C@@H]3C[C@](C)(C(=O)O)CC[C@]3(C)CC[C@]12C [CE, celastrol]",201 ± 10 µM,1.76 ± 0.43 µM,0.38 ± 0.08 µM,

# Reference: publication PMC7824787, “Design, Synthesis and In Vitro Investigation of Novel Basic Celastrol Carboxamides as Bio-Inspired Leishmanicidal Agents Endowed with Inhibitory Activity against Leishmania Hsp90” (Biomolecules, 2021)
